# According to patent publication US12678438B2, “Treatment of cancer with CDK inhibitors” (THE TRUSTEES OF THE UNIVERSITY OF PENNSYLVANIA, priority 2019, dated 2026):
# Columns and labels:
# Type in all cases: cell-based, human
# AR p-S515 = experiment: Immunoblot of AR p-S515; conditions: LNCaP, 200 nM, 12 h
# Experimental: (§1) Cell lysates were prepared with RIPA buffer (Boston Bioproducts, BP-115DG)-10 mM Tris-HCl pH 7.5, 1 mM EDTA, 400 mM NaCl, 0.5% NP-40 and 1 mM DTT, supplemented with protease inhibitor cocktail (Pierce, A32965) and phosphatase inhibitor (Thermo, 1861280). For immunoblotting 200 μg total protein extract was boiled in sample buffer and 15-25 μg aliquots were separated by SDS-PAGE and transferred onto Polyvinylidene Difluoride membrane (GE Healthcare, IPVH00010). The membrane was incubated for one hour in blocking buffer [Tris-buffered saline, 0.1% Tween (TBS-T), 5% nonfat dry milk followed by overnight incubation on a rocker at 4° C. with the primary antibody. Following a wash with TBS-T, the blot was incubated with horseradish peroxidase-conjugated secondary antibody for 2 hrs on a rocker at room temperature. The blots were washed again and signals were visualized using enhanced chemiluminescence system as per manufacturer's protocol (GE Healthcare) or Kwik Quant Imager (Kindle Biosciences). […]
# AR target genes = experiment: qRT-PCR of DHT-induced AR target gene expression; conditions: LNCaP and VCaP, 100 nM THZ1
# Experimental: For AR signaling stimulation experiments, cells were plated in complete media at required confluency. After 24 h cells were washed with DPBS and cultured in RPMI/DMEM without Phenol Red (Invitrogen, 11835030) and 10% charcoal-dextran stripped FBS (Gemini BioProducts, 100-119) for 72 h. Cells were then stimulated with 10 nM DHT for the specific time points.
# Total RNA was isolated from cells using miRNeasy Mini Kit (Qiagen, 74106) and cDNA was synthesized from 1 μg total RNA using SuperScriptIV (Life Technologies, 18090200). qRT-PCR was performed using Fast SYBR Master Mix (Life Technologies, 4385617) or Taqman Fast Advance MMIX (Life Technologies, 4444964), and analyzed on QuantStudio3 (Applied Biosystems, USA). The target mRNA expression was quantified using ΔΔCt method, as normalized to GAPDH transcript levels. Primers were designed using Primer3 Input (version 0.4.0) (bioinfo.ut.ee/primer3-0.4.0/primer3) and synthesized by Integrated DNA Technologies.
# p-MED1 (p-T1457 MED1) = experiment: Immunoblot of p-MED1 in AR negative RWPE and DU145 cells; conditions: RWPE and DU145, highest tested concentration
# Experimental: as §1
smiles,measurement,setting,value
CN(C)C/C=C/C(=O)Nc1ccc(C(=O)Nc2cccc(Nc3ncc(Cl)c(-c4c[nH]c5ccccc45)n3)c2)cc1 [THZ1],AR p-S515 levels,AR p-S515,did not reduce AR p-S515 levels
same,DHT-induced AR target gene expression,AR target genes,phenocopied the reduction in DHT-induced gene expression
same,p-MED1 or pS5-PolII levels,p-MED1 (p-T1457 MED1),no such decrease in p-MED1 or pS5-PolII levels
